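Exposure lasted 48 hours, with cells grown in 96-well plates and compounds tested at five concentrations. The concentration for 50% growth inhibition is given as GI50.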 Calls of active or inactive are those of the source. Rule as the data show it: active = GI50 up to about 1.1 µM and inactive = higher.
Key:
Assay in all cases: inhibition of tumour cell growth, NCI panel, 48 h
786-0 = test system: 786-0
CCRF-CEM = test system: CCRF-CEM
HCC 2998 = test system: HCC 2998
HCT-116 = test system: HCT-116
HOP-92 = test system: HOP-92
KM12 = test system: KM12
MCF7 = test system: MCF7
MDA-MB-435 = test system: MDA-MB-435
Malme-3M = test system: Malme-3M
OVCAR-3 = test system: OVCAR-3
SF-295 = test system: SF-295
SF-539 = test system: SF-539
SK-MEL-2 = test system: SK-MEL-2
SN12C = test system: SN12C
SNB-19 = test system: SNB-19
UO-31 = test system: UO-31
A498 = test system: A498
RXF 393 = test system: RXF 393
SNB-75 = test system: SNB-75

Measured: GI50

Cc1ccc(Nc2c3c(c(C#N)c4nc5ccccc5n24)CCCC3)cc1
inactive: 786-0 26.7 µM | CCRF-CEM 6.05 µM | HCC 2998 17.6 µM | HCT-116 10.9 µM | HOP-92 17.1 µM | KM12 > 100 µM | MCF7 9.89 µM | MDA-MB-435 18.2 µM | Malme-3M 30.7 µM | OVCAR-3 11.1 µM | SF-295 13 µM | SF-539 19.4 µM | SK-MEL-2 13.1 µM | SN12C 17.4 µM | SNB-19 38.4 µM | UO-31 12 µM

O=C(NC(Cc1c[nH]c2ccccc12)C(=O)O)/C(=C/c1ccccc1O)NC(=O)c1ccccc1 (centres undefined)
inactive: 786-0 18.6 µM | A498 > 100 µM | CCRF-CEM > 100 µM | HCC 2998 42.2 µM | HCT-116 42.6 µM | HOP-92 14.5 µM | KM12 7.16 µM | MCF7 3.08 µM | MDA-MB-435 18.9 µM | Malme-3M 22.4 µM | RXF 393 28.5 µM | SF-295 19.8 µM | SF-539 16.1 µM | SN12C 24.7 µM | SNB-19 22.7 µM | SNB-75 17.4 µM | UO-31 6.78 µM

c1ccc(CCN2CCc3[nH]c4ccccc4c3C2)cc1
inactive: 786-0 17.1 µM | A498 13.9 µM | CCRF-CEM 32.6 µM | HCC 2998 16.3 µM | HCT-116 14.5 µM | HOP-92 11.9 µM | KM12 17.3 µM | MCF7 18.8 µM | MDA-MB-435 17.4 µM | Malme-3M 17.1 µM | RXF 393 17.5 µM | SF-295 15.1 µM | SF-539 22.8 µM | SN12C 27.9 µM | SNB-19 20.8 µM | SNB-75 29 µM | UO-31 13.6 µM

OCC1C(O)C(O)[C@@H]2SCCN12 (some centres undefined)
inactive: 786-0 > 100 µM | A498 > 100 µM | CCRF-CEM > 100 µM | HCC 2998 > 100 µM | HCT-116 > 100 µM | HOP-92 > 100 µM | KM12 > 100 µM | MDA-MB-435 > 100 µM | Malme-3M > 100 µM | OVCAR-3 > 100 µM | RXF 393 > 100 µM | SF-295 > 100 µM | SK-MEL-2 > 100 µM | SNB-19 > 100 µM | SNB-75 > 100 µM | UO-31 > 100 µM

CN(/N=C/C=N/N(C)C1=NCCCN1)C1=NCCCN1
inactive: 786-0 > 100 µM | CCRF-CEM > 100 µM | HCC 2998 > 100 µM | HCT-116 > 100 µM | HOP-92 > 100 µM | KM12 > 100 µM | MCF7 > 100 µM | MDA-MB-435 > 100 µM | Malme-3M > 100 µM | OVCAR-3 > 100 µM | RXF 393 > 100 µM | SF-295 > 100 µM | SF-539 > 100 µM | SN12C > 100 µM | SNB-19 > 100 µM | SNB-75 > 100 µM | UO-31 > 100 µM

O=[N+]([O-])c1ccc(NN=C2CN3CCN(C2)c2ccccc23)c([N+](=O)[O-])c1
inactive: 786-0 > 100 µM | A498 > 100 µM | CCRF-CEM > 100 µM | HCC 2998 > 100 µM | HCT-116 > 100 µM | HOP-92 85.3 µM | KM12 > 100 µM | MCF7 > 100 µM | MDA-MB-435 > 100 µM | Malme-3M > 100 µM | OVCAR-3 > 100 µM | SF-295 > 100 µM | SF-539 > 100 µM | SN12C > 100 µM | SNB-19 > 100 µM | UO-31 > 100 µM

CCCCSN1C(=O)c2ccccc2C1=S
inactive: 786-0 34.1 µM | A498 > 100 µM | CCRF-CEM 15.9 µM | HCC 2998 73.5 µM | HCT-116 40.6 µM | HOP-92 41.1 µM | KM12 37.8 µM | Malme-3M 63.7 µM | OVCAR-3 > 100 µM | RXF 393 81.3 µM | SF-295 39.3 µM | SF-539 33.3 µM | SK-MEL-2 34.4 µM | SN12C 71.3 µM | SNB-19 > 100 µM | SNB-75 72.4 µM | UO-31 53.3 µM

CCN(C(=O)N[C@@H](Cc1ccccc1)C(=O)N[C@@H](CC(C)C)C(=O)NC)c1ccccc1
inactive: 786-0 > 100 µM | CCRF-CEM > 100 µM | HCC 2998 > 100 µM | HCT-116 > 100 µM | HOP-92 > 100 µM | KM12 > 100 µM | MCF7 > 100 µM | MDA-MB-435 > 100 µM | Malme-3M > 100 µM | OVCAR-3 > 100 µM | RXF 393 > 100 µM | SF-295 > 100 µM | SF-539 > 100 µM | SK-MEL-2 > 100 µM | SN12C > 100 µM | SNB-19 > 100 µM | SNB-75 95.3 µM | UO-31 > 100 µM

O=P(O)(O)C(N=C(Nc1ccccc1)Nc1ccccc1)P(=O)(O)O
inactive: 786-0 > 100 µM | HCC 2998 > 100 µM | HCT-116 > 100 µM | KM12 > 100 µM | MCF7 > 100 µM | Malme-3M > 100 µM | OVCAR-3 > 100 µM | RXF 393 > 100 µM | SF-295 > 100 µM | SF-539 > 100 µM | SNB-19 > 100 µM | UO-31 > 100 µM

COc1ccc2c3c1O[C@H]1C(OC)C=CC4C(C2)N(Cc2cccs2)CCC341 (some centres undefined)
inactive: 786-0 > 100 µM | CCRF-CEM 49.7 µM | HCC 2998 > 100 µM | HCT-116 49.2 µM | HOP-92 > 100 µM | MDA-MB-435 41.5 µM | Malme-3M > 100 µM | OVCAR-3 45.4 µM | SF-295 61 µM | SN12C > 100 µM | SNB-19 > 100 µM | UO-31 > 100 µM

N=C(N)SCc1ccc(N=C=S)cc1
inactive: 786-0 13.8 µM | A498 13.9 µM | CCRF-CEM 6.93 µM | HCC 2998 16.6 µM | HCT-116 14 µM | HOP-92 11.7 µM | KM12 14.3 µM | MDA-MB-435 13.1 µM | Malme-3M 14.3 µM | RXF 393 3.56 µM | SF-295 17.1 µM | SF-539 14.1 µM | SK-MEL-2 10.4 µM | SN12C 14.5 µM | SNB-19 13.8 µM | SNB-75 10.2 µM | UO-31 12.5 µM

COc1cc(OC)cc(OCc2nc3cc(C(F)(F)F)ccc3nc2-c2ccccc2)c1
inactive: 786-0 > 100 µM | CCRF-CEM > 100 µM | HCC 2998 > 100 µM | HCT-116 > 100 µM | HOP-92 > 100 µM | KM12 > 100 µM | MCF7 > 100 µM | MDA-MB-435 > 100 µM | Malme-3M > 100 µM | OVCAR-3 > 100 µM | RXF 393 > 100 µM | SF-295 > 100 µM | SF-539 > 100 µM | SK-MEL-2 > 100 µM | SN12C > 100 µM | SNB-19 > 100 µM | SNB-75 > 100 µM | UO-31 > 100 µM

COC(=O)c1ccccc1C1CN=NC12Cc1ccccc1C2=O (centres undefined)
inactive: 786-0 > 100 µM | CCRF-CEM > 100 µM | HCC 2998 > 100 µM | HCT-116 > 100 µM | HOP-92 34 µM | KM12 58.1 µM | MCF7 > 100 µM | MDA-MB-435 42.6 µM | Malme-3M 74.5 µM | OVCAR-3 40.5 µM | RXF 393 > 100 µM | SF-295 > 100 µM | SF-539 > 100 µM | SK-MEL-2 > 100 µM | SN12C > 100 µM | SNB-19 > 100 µM | SNB-75 43.6 µM | UO-31 34.2 µM

CC1(c2nc3cc(Cl)c(Cl)cc3[nH]2)CCC(C(=O)O)C(C)(C)O1 (centres undefined)
inactive: 786-0 > 100 µM | CCRF-CEM > 100 µM | HCC 2998 > 100 µM | HCT-116 > 100 µM | HOP-92 > 100 µM | KM12 > 100 µM | MCF7 > 100 µM | MDA-MB-435 > 100 µM | Malme-3M > 100 µM | OVCAR-3 > 100 µM | RXF 393 > 100 µM | SF-295 > 100 µM | SF-539 > 100 µM | SK-MEL-2 > 100 µM | SN12C > 100 µM | SNB-19 > 100 µM | SNB-75 > 100 µM | UO-31 34.8 µM

NS(=O)(=O)c1ccc(N2C(=O)C(=O)N(c3ccccc3)C2=S)cc1
inactive: 786-0 > 100 µM | A498 > 100 µM | CCRF-CEM > 100 µM | HCC 2998 > 100 µM | HCT-116 > 100 µM | HOP-92 23.6 µM | KM12 > 100 µM | MDA-MB-435 > 100 µM | Malme-3M > 100 µM | RXF 393 75.7 µM | SF-295 > 100 µM | SF-539 > 100 µM | SK-MEL-2 > 100 µM | SN12C > 100 µM | SNB-19 > 100 µM | SNB-75 74.3 µM | UO-31 > 100 µM

C[n+]1c(-c2ccc(/C=N\Nc3ccnc(N/N=C/c4ccc(-c5cn6ccsc6[n+]5C)cc4)n3)cc2)cn2ccsc21
inactive: 786-0 10.9 µM | A498 17.1 µM | CCRF-CEM 18.3 µM | HCC 2998 37.2 µM | HOP-92 18.3 µM | KM12 15.8 µM | MCF7 34.8 µM | MDA-MB-435 2.24 µM | Malme-3M 29.7 µM | OVCAR-3 > 100 µM | RXF 393 18.3 µM | SF-539 11.6 µM | SN12C 27.1 µM | SNB-19 37.6 µM | SNB-75 34 µM | UO-31 20 µM

COc1ccc2c(c1)-c1c(c3ccccc3n1CCN1CCOCC1)CC2
inactive: 786-0 22.6 µM | CCRF-CEM 22.4 µM | HCC 2998 18.2 µM | HCT-116 22.4 µM | HOP-92 36.6 µM | KM12 11.5 µM | MCF7 32.3 µM | MDA-MB-435 34.5 µM | Malme-3M 14.6 µM | OVCAR-3 18.2 µM | SF-295 16 µM | SF-539 25 µM | SK-MEL-2 11 µM | SN12C 28.2 µM | SNB-19 21 µM | SNB-75 10.8 µM | UO-31 22.6 µM
